The text below walks through data of ChEMBL document CHEMBL1126676, “On the prediction of binding properties of drug molecules by comparative molecular field analysis” (1993).

One experiment concerns the target T1, Thermolysin (Bacillus thermoproteolyticus) (UniProt P00800).
T1 sequence (whole entry): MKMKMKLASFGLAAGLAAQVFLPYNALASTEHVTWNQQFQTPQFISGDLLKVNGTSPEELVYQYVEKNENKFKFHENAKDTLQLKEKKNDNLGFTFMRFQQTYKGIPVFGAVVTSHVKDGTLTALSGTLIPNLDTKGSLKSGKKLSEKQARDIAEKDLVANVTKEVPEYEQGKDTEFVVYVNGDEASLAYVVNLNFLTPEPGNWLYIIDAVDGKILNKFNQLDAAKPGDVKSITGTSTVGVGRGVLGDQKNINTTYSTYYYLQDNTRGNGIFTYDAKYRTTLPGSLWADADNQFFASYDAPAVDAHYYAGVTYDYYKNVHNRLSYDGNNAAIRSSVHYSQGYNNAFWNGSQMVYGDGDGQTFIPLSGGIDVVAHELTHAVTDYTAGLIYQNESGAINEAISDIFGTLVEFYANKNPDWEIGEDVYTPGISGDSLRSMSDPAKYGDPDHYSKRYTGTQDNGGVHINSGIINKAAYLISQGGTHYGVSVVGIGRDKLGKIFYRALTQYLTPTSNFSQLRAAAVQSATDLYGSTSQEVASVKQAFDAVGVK
In words: Binding constant against thermolysin expressed as negative logarithm.
`CC(C)CC(OP(=O)(O)CNC(=O)OCc1ccccc1)C(=O)NC(C)C(=O)O` (stereo unspecified) yielded a -ln K of 11.2.
Regarding `CC(C)CC(CP(=O)(O)CNC(=O)OCc1ccccc1)C(=O)NCC(=O)O` (stereo unspecified), the -ln K was 15.
`CC(C)CC(OP(=O)(O)CNC(=O)OCc1ccccc1)C(=O)NCC(=O)O` (stereo unspecified) displayed a -ln K of 8.38.
`CC(C)CC(CP(=O)(O)CNC(=O)OCc1ccccc1)C(=O)NC(C)C(=O)O` (stereo unspecified) showed a -ln K of 17.8.
Same read-out and setting: the result for `CC(C)CC(OP(=O)(O)CNC(=O)OCc1ccccc1)C(=O)NC(Cc1ccccc1)C(=O)O` (stereo unspecified) reads 9.85; that for `CC(NC(=O)C(Cc1ccccc1)C(=O)NO)C(=O)NCCO` (stereo unspecified), 14.7.
On the same count and under the same terms, next, `CC(C)CC(N)C(=O)NO` (stereo unspecified): 8.57; `CC(C)CC(NC(=O)C(CC(C)C)OP(=O)(O)CNC(=O)OCc1ccccc1)C(=O)O` (stereo unspecified): 11.6.

Tested on in another experiment: not listed separately
In words: Negative logarithm of minimal inhibitory concentration against human rhinovirus 14. The format is functional.
Take `Cc1cc(CCCCCCCOc2ccc(C3=N[C@H](C)CO3)cc2)on1`: the “-ln (MIC)” value amounted to 14.7.
For the molecule `Cc1cc(CCCCCOc2ccc(C3=NCCO3)cc2Cl)on1`, the “-ln (MIC)” value was 12.9.
The same measure, in the same setting: the result for `Cc1cc(CCCCCCCOc2ccc(C3=N[C@@H](C)CO3)cc2Cl)on1` reads 15.4.
On the same count and under the same terms, next, `Cc1cc(CCCCCCCOc2ccc(C3=NCCO3)cc2)on1` [DISOXARIL]: 14.3; `Cc1cc(CCCCCOc2ccc(C3=N[C@@H](C)CO3)cc2)on1`: 14.3; `Cc1cc(CCCCCCCOc2ccc(C3=N[C@@H](C)CO3)cc2)on1`: 17.3.
On the same count and under the same terms, next, `CC[C@H]1COC(c2ccc(OCCCCCCCc3cc(C)no3)cc2)=N1`: 17.7; `Cc1cc(CCCCCOc2ccc(C3=NCCO3)cc2)on1`: 14.5.
